Like-named read-outs stand apart in the source and are kept apart here.
Columns and labels:
[1] = test system: mustard beetle larvae (Phaedon cochleariae); experiment: Phaedon cochleariae - spray test; details: for Efficacy in % after 2d: mortality after 2 d; for Efficacy in % after 6d: mortality after 6 d
Description: The expected efficacy of a given combination of two compounds is calculated as follows (see Colby, S. R., “Calculating Synergistic and antagonistic Responses of Herbicide Combinations”, Weeds 15, pp. 20-22, 1967):
Solvent: 78.0 parts by weight of acetone • • 1.5 parts by weight of dimethylformamide
To produce a suitable preparation of a NRRL B-50550, 1 part by weight of NRRL B-50550 75 WP was mixed with the stated amount of solvents and was diluted with water, containing an emulsifier concentration of 1000 ppm, to the desired concentration. Further test concentrations are prepared by dilution with emulsifier containing water.
Chinese cabbage (Brassica pekinensis) leaf-disks are sprayed with a preparation of the active ingredient of the desired concentration. Once dry, the leaf disks are infested with mustard beetle larvae (Phaedon cochleariae).
After the specified period of time, mortality in % is determined 100% means all beetle larvae have been killed and 0% means none of the beetle larvae have been killed. The mortality values determined thus are recalculated using the Colby-formula.

[2] = test system: fall armyworm larvae (Spodoptera frugiperda); experiment: Spodoptera frugiperda - spray test; details: for Efficacy in % after 6d: mortality after 6 d; for Efficacy in % after 2d: mortality after 2 d
Description: Solvent: 78.0 parts by weight acetone • 1.5 parts by weight dimethylformamide
To produce a suitable preparation of NRRL B-50550, 1 part by weight of NRRL B-50550 75 WP is mixed with the stated amount of solvents and is diluted with water, containing an emulsifier concentration of 1000 ppm, to the desired concentration. Further test concentrations are prepared by dilution with emulsifier containing water.
Maize (Zea mais) leaf sections are sprayed with a preparation of the active ingredient of the desired concentration. Once dry, the leaf sections are infested with fall armyworm larvae (Spodoptera frugiperda).
After the specified period of time, mortality in % is determined 100% means all caterpillars have been killed and 0% means none of the caterpillars have been killed. The mortality values determined thus are recalculated using the Colby-formula.

[3] = test system: two spotted spidermite (Tetranychus urticae); experiment: Tetranychus urticae - spray test, OP-resistant; format: in vivo; details: mortality after 6 d
Excerpt: (§1) Emulsifier: alkylaryl polyglycol ether

[4] = test system: green peach aphid (Myzus persicae); experiment: Myzus persicae - spray test (Chinese cabbage leaf-disks, Example 6); format: in vivo; details: for Efficacy in % after 1d: mortality after 1 d; for Efficacy in % after 6d: mortality after 6 d
Excerpt: as §1

pin worm = details: parasites on animals, such as pin worm, cited from earlier work
mites = details: cited from earlier work
[5] = test system: gram-positive, gram-negative bacteria and tubercule bacillus; details: cited from earlier work
[6] = cited from earlier work
[7] = test system: green peach aphid (Myzus persicae); experiment: Myzus persicae - spray test (pepper leaves, Example 8); format: in vivo; details: 0.5 ppm

Cc1c(F)c(F)c(COC(=O)[C@@H]2[C@H](/C=C(\Cl)C(F)(F)F)C2(C)C)c(F)c1F (racemic) [Tefluthrin]
Efficacy in % after 2d ([1]; 40 ppm): 0%

CNC(=O)c1cc(C#N)cc(C)c1NC(=O)c1cc(Cn2nnc(C(F)(F)F)n2)nn1-c1ncccc1Cl [1-(3-chloropyridin-2-yl)-N-[4-cyano-2-methyl-6-(methylcarbamoyl)phenyl]-3-{[5-(trifluoromethyl)-2H-tetrazol-2-yl]methyl}-1H-pyrazole-5-carboxamide]
Efficacy in % after 6d ([1]; 0.128 ppm): 0%
Efficacy in % after 2d ([1]; 0.64 ppm): 50%
Efficacy in % after 6d ([2]; 0.64 ppm): 33%

Cc1cc(F)c(-n2nc(C(F)(F)F)nc2N)cc1[S+]([O-])CC(F)(F)F (stereo not drawn) [1-{2-fluoro-4-methyl-5-[(2,2,2-trifluorethyl)sulfinyl]phenyl}-3-(trifluoromethyl)-1H-1,2,4-triazol-5-amine]
Efficacy in % after 6d ([3]; 3.2 ppm): 0%

CNC(=O)c1cc(Cl)cc(C)c1NC(=O)c1cc(Br)nn1-c1ncccc1Cl [Chlorantraniliprole]
Efficacy in % after 1d ([4]; 3.2 ppm): 0%
Efficacy in % after 6d ([3]; 16 ppm): 0%

CN/C(=N\[N+](=O)[O-])NCc1cnc(Cl)s1 [Clothianidin]
Efficacy in % after 6d ([4]; 0.32 ppm): 0%

CNC(=O)c1cc(C#N)cc(C)c1NC(=O)c1cc(Br)nn1-c1ncccc1Cl [Cyantraniliprole]
Efficacy in % after 6d ([4]; 0.64 ppm): 0%
Efficacy in % after 6d ([4]; 3.2 ppm): 0%
Efficacy in % after 1d ([4]; 16 ppm): 0%
Efficacy in % after 6d ([3]; 80 ppm): 0%
Efficacy in % after 6d ([1]; 0.64 ppm): 0%

N#Cc1nn(-c2c(Cl)cc(C(F)(F)F)cc2Cl)c(N)c1[S+]([O-])C(F)(F)F (stereo not drawn) [Fipronil]
Efficacy in % after 6d ([2]; 16 ppm): 0%

Cc1cc(C(F)(C(F)(F)F)C(F)(F)F)ccc1NC(=O)c1cccc(I)c1C(=O)NC(C)(C)CS(C)(=O)=O [Flubendiamide]
Efficacy in % after 2d ([2]; 3.2 ppm): 33%

CNCC(=O)NC(CO)C(=O)NC1C(C(N)=O)OC(n2ccc(N)nc2=O)C(O)C1O [Gougerotin, 1-(4-Amino-2-oxo-1(2H)-pyrimidinyl)-1,4-dideoxy-4-[[N—(N-methylglycyl)-D-seryl]amino]-b-D-glucopyranuronamide]
parasiticidal activity (pin worm): inhibitory effect on the ovulation of pin worms
parasiticidal activity (pin worm; listed as gougerotin): parasiticidal action
acaricidal (miticidal) effect (mites): acaricidal (miticidal) effect
antibacterial activity [5]: weak
water solubility [6]: water soluble

O=[N+]([O-])NC1=NCCN1Cc1ccc(Cl)nc1 [Imidacloprid]
Efficacy in % after 6d ([3]; 2 ppm): 0%

CNC(=O)Oc1cc(C)c(SC)c(C)c1 [Methiocarb]
Efficacy in % after 6d ([4]; 2000 ppm): 0%

CC(c1ccc(C(F)(F)F)nc1)S(C)(=O)=NC#N (stereo not drawn) [Sulfoxaflor]
Efficacy in % after 1d ([4]; 0.64 ppm): 0%

N#C/N=C1\SCCN1Cc1ccc(Cl)nc1 [Thiacloprid]
Efficacy in % after 2d ([7]; mortality after 2 d): 40%
Efficacy in % after 3d ([7]; mortality after 3 d): 20%
Efficacy in % after 7d ([7]; mortality after 7 d): 10%

CS/C(C)=N\OC(=O)N(C)SN(C)C(=O)O/N=C(\C)SC [Thiodicarb]
Efficacy in % after 2d ([2]; 40 ppm): 0%

CC1(C)C(C=C(Cl)Cl)C1C(=O)OC(C#N)c1ccc(F)c(Oc2ccccc2)c1 (stereo not drawn) [β-Cyfluthrin, beta-Cyfluthrin]
Efficacy in % after 6d ([4]; 1.6 ppm): 0%
Efficacy in % after 6d ([1]; 1.6 ppm): 0%
Efficacy in % after 6d ([2]; 1.6 ppm): 0%

Spinetoram
Efficacy in % after 2d ([2]; 0.64 ppm): 0%

Spinosad
Efficacy in % after 2d ([1]; 80 ppm): 50%
Efficacy in % after 6d ([2]; 0.64 ppm): 0%
